Reference: ChEMBL document CHEMBL4184242, “Synthesis and antibacterial studies of teixobactin analogues with non-isostere substitution of enduracididine” (2018)
≈ marks a conversion by molar mass, not a printed value.

Columns and labels:
[1] = system: Staphylococcus aureus; experiment: Antibacterial activity against methicillin-resistant Staphylococcus aureus isolate SA1114 by CLSI M100-S17 protocol based broth dilution method; type: functional
[2] = system: Staphylococcus aureus; experiment: Antibacterial activity against methicillin-susceptible Staphylococcus aureus ATCC 29213 by CLSI M100-S17 protocol based broth dilution method; type: functional

SMILES | MIC [1] [µg/mL] | MIC [2] [µg/mL]
CC[C@@H](C)[C@@H](NC(=O)[C@@H](CCC(N)=O)NC(=O)[C@H](CO)NC(=O)[C@@H](NC(=O)[C@@H](Cc1ccccc1)NC)[C@@H](C)CC)C(=O)N[C@H](C(=O)N[C@@H](CO)C(=O)N[C@H]1C(=O)N[C@@H](C)C(=O)N[C@@H]([C@@H](C)CC)C(=O)N[C@@H]([C@@H](C)CC)C(=O)O[C@H]1C)[C@@H](C)CC | 1 (≈ 0.832 µM) | 0.5 (≈ 0.416 µM)
CC[C@@H](C)[C@@H](NC(=O)[C@@H](CCC(N)=O)NC(=O)[C@H](CO)NC(=O)[C@@H](NC(=O)[C@@H](Cc1ccccc1)NC)[C@@H](C)CC)C(=O)N[C@H](C(=O)N[C@@H](CO)C(=O)N[C@H]1C(=O)N[C@@H](C)C(=O)N[C@@H](Cc2ccc(Br)cc2)C(=O)N[C@@H]([C@@H](C)CC)C(=O)O[C@H]1C)[C@@H](C)CC | ≥ 32 | 2 (≈ 1.52 µM)
CC[C@@H](C)[C@@H](NC(=O)[C@@H](CCC(N)=O)NC(=O)[C@H](CO)NC(=O)[C@@H](NC(=O)[C@@H](Cc1ccccc1)NC)[C@@H](C)CC)C(=O)N[C@H](C(=O)N[C@@H](CO)C(=O)N[C@H]1C(=O)N[C@@H](C)C(=O)N[C@@H](CCC(N)=O)C(=O)N[C@@H]([C@@H](C)CC)C(=O)O[C@H]1C)[C@@H](C)CC | 16 (≈ 13.2 µM) | 16 (≈ 13.2 µM)
CCCC[C@@H]1NC(=O)[C@H](C)NC(=O)[C@H](NC(=O)[C@H](CO)NC(=O)[C@@H](NC(=O)[C@H](NC(=O)[C@@H](CCC(N)=O)NC(=O)[C@H](CO)NC(=O)[C@@H](NC(=O)[C@@H](Cc2ccccc2)NC)[C@@H](C)CC)[C@H](C)CC)[C@@H](C)CC)[C@H](C)OC(=O)[C@H]([C@@H](C)CC)NC1=O | 2 (≈ 1.66 µM) | 0.5 (≈ 0.416 µM)
CC[C@@H](C)[C@@H](NC(=O)[C@@H](CCC(N)=O)NC(=O)[C@H](CO)NC(=O)[C@@H](NC(=O)[C@@H](Cc1ccccc1)NC)[C@@H](C)CC)C(=O)N[C@H](C(=O)N[C@@H](CO)C(=O)N[C@H]1C(=O)N[C@@H](C)C(=O)N2CCC[C@H]2C(=O)N[C@@H]([C@@H](C)CC)C(=O)O[C@H]1C)[C@@H](C)CC | ≥ 32 | ≥ 32
CC[C@@H](C)[C@@H](NC(=O)[C@@H](CCC(N)=O)NC(=O)[C@H](CO)NC(=O)[C@@H](NC(=O)[C@@H](Cc1ccccc1)NC)[C@@H](C)CC)C(=O)N[C@H](C(=O)N[C@@H](CO)C(=O)N[C@H]1C(=O)N[C@@H](C)C(=O)NCC(=O)N[C@@H]([C@@H](C)CC)C(=O)O[C@H]1C)[C@@H](C)CC | 8 to 16 (≈ 6.98 to 14 µM) | 2 (≈ 1.75 µM)
CC[C@@H](C)[C@@H](NC(=O)[C@@H](CCC(N)=O)NC(=O)[C@H](CO)NC(=O)[C@@H](NC(=O)[C@@H](Cc1ccccc1)NC)[C@@H](C)CC)C(=O)N[C@H](C(=O)N[C@@H](CO)C(=O)N[C@H]1C(=O)N[C@@H](C)C(=O)N[C@@H](C(C)C)C(=O)N[C@@H]([C@@H](C)CC)C(=O)O[C@H]1C)[C@@H](C)CC | 2 (≈ 1.68 µM) | 0.5 (≈ 0.421 µM)
CCC[C@@H]1NC(=O)[C@H](C)NC(=O)[C@H](NC(=O)[C@H](CO)NC(=O)[C@@H](NC(=O)[C@H](NC(=O)[C@@H](CCC(N)=O)NC(=O)[C@H](CO)NC(=O)[C@@H](NC(=O)[C@@H](Cc2ccccc2)NC)[C@@H](C)CC)[C@H](C)CC)[C@@H](C)CC)[C@H](C)OC(=O)[C@H]([C@@H](C)CC)NC1=O | 1 to 2 (≈ 0.842 to 1.68 µM) | 0.25 (≈ 0.211 µM)
CC[C@@H](C)[C@@H](NC(=O)[C@@H](CCC(N)=O)NC(=O)[C@H](CO)NC(=O)[C@@H](NC(=O)[C@@H](Cc1ccccc1)NC)[C@@H](C)CC)C(=O)N[C@H](C(=O)N[C@@H](CO)C(=O)N[C@H]1C(=O)N[C@@H](C)C(=O)N[C@@H](CCSC)C(=O)N[C@@H]([C@@H](C)CC)C(=O)O[C@H]1C)[C@@H](C)CC | 1 (≈ 0.82 µM) | 0.25 (≈ 0.205 µM)
CC[C@@H](C)[C@@H](NC(=O)[C@@H](CCC(N)=O)NC(=O)[C@H](CO)NC(=O)[C@@H](NC(=O)[C@@H](Cc1ccccc1)NC)[C@@H](C)CC)C(=O)N[C@H](C(=O)N[C@@H](CO)C(=O)N[C@H]1C(=O)N[C@@H](C)C(=O)N[C@@H](CC(=O)O)C(=O)N[C@@H]([C@@H](C)CC)C(=O)O[C@H]1C)[C@@H](C)CC | ≥ 32 | ≥ 32
CC[C@@H](C)[C@@H](NC(=O)[C@@H](CCC(N)=O)NC(=O)[C@H](CO)NC(=O)[C@@H](NC(=O)[C@@H](Cc1ccccc1)NC)[C@@H](C)CC)C(=O)N[C@H](C(=O)N[C@@H](CO)C(=O)N[C@H]1C(=O)N[C@@H](C)C(=O)N[C@@H](Cc2ccccc2)C(=O)N[C@@H]([C@@H](C)CC)C(=O)O[C@H]1C)[C@@H](C)CC | 4 (≈ 3.24 µM) | 1 (≈ 0.809 µM)
CC[C@@H](C)[C@@H](NC(=O)[C@@H](CCC(N)=O)NC(=O)[C@H](CO)NC(=O)[C@@H](NC(=O)[C@@H](Cc1ccccc1)NC)[C@@H](C)CC)C(=O)N[C@H](C(=O)N[C@@H](CO)C(=O)N[C@H]1C(=O)N[C@@H](C)C(=O)N[C@@H](CC(N)=O)C(=O)N[C@@H]([C@@H](C)CC)C(=O)O[C@H]1C)[C@@H](C)CC | 16 (≈ 13.3 µM) | 8 (≈ 6.65 µM)
CC[C@@H](C)[C@@H](NC(=O)[C@@H](CCC(N)=O)NC(=O)[C@H](CO)NC(=O)[C@@H](NC(=O)[C@@H](Cc1ccccc1)NC)[C@@H](C)CC)C(=O)N[C@H](C(=O)N[C@@H](CO)C(=O)N[C@H]1C(=O)N[C@@H](C)C(=O)N[C@@H](CC2CCCCC2)C(=O)N[C@@H]([C@@H](C)CC)C(=O)O[C@H]1C)[C@@H](C)CC | 2 (≈ 1.61 µM) | 0.5 (≈ 0.403 µM)
CC[C@@H](C)[C@@H](NC(=O)[C@@H](CCC(N)=O)NC(=O)[C@H](CO)NC(=O)[C@@H](NC(=O)[C@@H](Cc1ccccc1)NC)[C@@H](C)CC)C(=O)N[C@H](C(=O)N[C@@H](CO)C(=O)N[C@H]1C(=O)N[C@@H](C)C(=O)N[C@@H](CC(C)C)C(=O)N[C@@H]([C@@H](C)CC)C(=O)O[C@H]1C)[C@@H](C)CC | 2 (≈ 1.66 µM) | 0.5 (≈ 0.416 µM)
CC[C@@H](C)[C@@H](NC(=O)[C@@H](CCC(N)=O)NC(=O)[C@H](CO)NC(=O)[C@@H](NC(=O)[C@@H](Cc1ccccc1)NC)[C@@H](C)CC)C(=O)N[C@H](C(=O)N[C@@H](CO)C(=O)N[C@H]1C(=O)N[C@@H](C)C(=O)N[C@@H]([C@@H](C)O)C(=O)N[C@@H]([C@@H](C)CC)C(=O)O[C@H]1C)[C@@H](C)CC | 16 (≈ 13.5 µM) | 8 (≈ 6.73 µM)
CC[C@@H]1NC(=O)[C@H](C)NC(=O)[C@H](NC(=O)[C@H](CO)NC(=O)[C@@H](NC(=O)[C@H](NC(=O)[C@@H](CCC(N)=O)NC(=O)[C@H](CO)NC(=O)[C@@H](NC(=O)[C@@H](Cc2ccccc2)NC)[C@@H](C)CC)[C@H](C)CC)[C@@H](C)CC)[C@H](C)OC(=O)[C@H]([C@@H](C)CC)NC1=O | 4 (≈ 3.41 µM) | 1 (≈ 0.852 µM)
CC[C@@H](C)[C@@H](NC(=O)[C@@H](CCC(N)=O)NC(=O)[C@H](CO)NC(=O)[C@@H](NC(=O)[C@@H](Cc1ccccc1)NC)[C@@H](C)CC)C(=O)N[C@H](C(=O)N[C@@H](CO)C(=O)N[C@H]1C(=O)N[C@@H](C)C(=O)N[C@@H](Cc2ccc([N+](=O)[O-])cc2)C(=O)N[C@@H]([C@@H](C)CC)C(=O)O[C@H]1C)[C@@H](C)CC | 4 (≈ 3.12 µM) | 0.5 (≈ 0.39 µM)
CC[C@@H](C)[C@@H](NC(=O)[C@@H](CCC(N)=O)NC(=O)[C@H](CO)NC(=O)[C@@H](NC(=O)[C@@H](Cc1ccccc1)NC)[C@@H](C)CC)C(=O)N[C@H](C(=O)N[C@@H](CO)C(=O)N[C@H]1C(=O)N[C@@H](C)C(=O)N[C@@H](C2CCCCC2)C(=O)N[C@@H]([C@@H](C)CC)C(=O)O[C@H]1C)[C@@H](C)CC | 1 (≈ 0.815 µM) | 0.25 (≈ 0.204 µM)
CC[C@@H](C)[C@@H](NC(=O)[C@@H](CCC(N)=O)NC(=O)[C@H](CO)NC(=O)[C@@H](NC(=O)[C@@H](Cc1ccccc1)NC)[C@@H](C)CC)C(=O)N[C@H](C(=O)N[C@@H](CO)C(=O)N[C@H]1C(=O)N[C@@H](C)C(=O)N[C@@H](CSC(C)(C)C)C(=O)N[C@@H]([C@@H](C)CC)C(=O)O[C@H]1C)[C@@H](C)CC | 4 (≈ 3.21 µM) | 2 (≈ 1.6 µM)
CC[C@@H](C)[C@@H](NC(=O)[C@@H](CCC(N)=O)NC(=O)[C@H](CO)NC(=O)[C@@H](NC(=O)[C@@H](Cc1ccccc1)NC)[C@@H](C)CC)C(=O)N[C@H](C(=O)N[C@@H](CO)C(=O)N[C@H]1C(=O)N[C@@H](C)C(=O)N[C@@H](Cc2ccc(OC)cc2)C(=O)N[C@@H]([C@@H](C)CC)C(=O)O[C@H]1C)[C@@H](C)CC | ≥ 32 | 1 (≈ 0.79 µM)
CC[C@@H](C)[C@@H](NC(=O)[C@@H](CCC(N)=O)NC(=O)[C@H](CO)NC(=O)[C@@H](NC(=O)[C@@H](Cc1ccccc1)NC)[C@@H](C)CC)C(=O)N[C@H](C(=O)N[C@@H](CO)C(=O)N[C@H]1C(=O)N[C@@H](C)C(=O)N[C@@H](CCC(=O)O)C(=O)N[C@@H]([C@@H](C)CC)C(=O)O[C@H]1C)[C@@H](C)CC | ≥ 32 | ≥ 32
CC[C@@H](C)[C@@H](NC(=O)[C@@H](CCC(N)=O)NC(=O)[C@H](CO)NC(=O)[C@@H](NC(=O)[C@@H](Cc1ccccc1)NC)[C@@H](C)CC)C(=O)N[C@H](C(=O)N[C@@H](CO)C(=O)N[C@H]1C(=O)N[C@@H](C)C(=O)N[C@@H](Cc2ccc(O)c([N+](=O)[O-])c2)C(=O)N[C@@H]([C@@H](C)CC)C(=O)O[C@H]1C)[C@@H](C)CC | 4 (≈ 3.09 µM) | 1 (≈ 0.771 µM)
CC[C@@H](C)[C@@H](NC(=O)[C@@H](CCC(N)=O)NC(=O)[C@H](CO)NC(=O)[C@@H](NC(=O)[C@@H](Cc1ccccc1)NC)[C@@H](C)CC)C(=O)N[C@H](C(=O)N[C@@H](CO)C(=O)N[C@H]1C(=O)N[C@@H](C)C(=O)N[C@@H](Cc2ccc(O)cc2)C(=O)N[C@@H]([C@@H](C)CC)C(=O)O[C@H]1C)[C@@H](C)CC | 8 (≈ 6.39 µM) | 2 (≈ 1.6 µM)
CC[C@@H](C)[C@@H](NC(=O)[C@@H](CCC(N)=O)NC(=O)[C@H](CO)NC(=O)[C@@H](NC(=O)[C@@H](Cc1ccccc1)NC)[C@@H](C)CC)C(=O)N[C@H](C(=O)N[C@@H](CO)C(=O)N[C@H]1C(=O)N[C@@H](C)C(=O)N[C@@H](C)C(=O)N[C@@H]([C@@H](C)CC)C(=O)O[C@H]1C)[C@@H](C)CC | 8 (≈ 6.9 µM) | 2 (≈ 1.73 µM)
CC[C@@H](C)[C@@H](NC(=O)[C@@H](CCC(N)=O)NC(=O)[C@H](CO)NC(=O)[C@@H](NC(=O)[C@@H](Cc1ccccc1)NC)[C@@H](C)CC)C(=O)N[C@H](C(=O)N[C@@H](CO)C(=O)N[C@H]1C(=O)N[C@@H](C)C(=O)N[C@@H](CC2CC2)C(=O)N[C@@H]([C@@H](C)CC)C(=O)O[C@H]1C)[C@@H](C)CC | 2 (≈ 1.67 µM) | 0.5 (≈ 0.417 µM)
